Read-outs that look alike come from different tables or passages of the source.
How the values were obtained:
[1] = Amount of acetaminophen permeated through hairless rat skin with membrane, two-chamber diffusion cell; format: in vitro ADME, WBN/Kob hairless rats
Experimental: The skin of the abdomen of WBN/Kob hairless rats ("Saitama" experimental animal) was taken under anesthesia (60 mg/kg pentobarbital, I.P.). A membrane sample prepared in the same manner as that of Example 3 was applied to the corneous layer-side of the skin specimens and they were placed in a glass two-chamber diffusion cell. 10% aqueous ethanol solution containing 2.4% of acetaminophen dissolved therein was placed in a donor-side chamber thereof and a phosphate buffer solution (pH 7.4) was placed in a receiver-side chamber. Increase in acetaminophen concentration in the receiver-side chamber with time was determined by HPLC.

[2] = Cumulative amount of nitroglycerin permeated through hairless rat skin, two-chamber diffusion cell; format: in vitro ADME; settings: 38° C.
Experimental: The same membrane sample as that of Example 2 and the same skin of hairless rat as that of Example 3 were mounted in the glass 2-chamber diffusion cell in the same manner as described above. 0.1% aqueous nitroglycerin solution was placed in the donor-side chamber and a phosphate buffer solution (pH 7.4) was placed in the receiver chamber. An increase of the concentration of nitroglycerin in the receiver chamber with time was determined by HPLC. As a control, only the skin free from the sample membrane was used in the experiment of the permeation of nitroglycerin through the skin. The experiment was conducted at 38° C.

[3] = Ketoprofen concentration in the blood after application to rabbit abdomen; format: in vivo, white rabbits
Experimental: (§1) Hair was removed from the abdomen of a white rabbits weighing 2.0 to 2.5 kg with an electric clipper and the abdomen was then shaved with an electric razor carefully so as not to hurt the skin. A glass cell kept at a constant temperature by circulation of warm water was fixed thereon with a quick adhesive (Alon Alpha® of Toa Gosei Co.) through a membrane sample.
(§2) A drug solution was placed in the glass cell and the concentration of the drug in the blood was determined at time intervals over 48 h. In this experiment, the blood sample was taken from the ear vein of the rabbit at given time intervals and the drug concentration was analyzed according to liquid chromatography.
(§3) The polymer membrane and the drug solution used in this experiment were prepared as follows: in the example of the present invention, a polypropylene membrane (Celgard® 2402 having a port diameter of 0.02 μm and porosity of 38%) was immersed in 15% or 20% solution of polyoxyethylene(3 mol) trimethylolpropane tristearate (TPS-303® of Nippon Emulsion Co.) in chloroform for one hour and then air-dried to obtain the membrane. The drug solution used in this example was 50% aqueous N-methyl-2-pyrrolidone solution further containing 0.01 g/ml of indomethacin.
A change of the concentration of ketoprofen in the blood was investigated with the same polymer membrane in the same manner as those of Example 6 except that 3 ml of 30% aqueous ethanol solution in which 0.01 g/ml of ketoprofen had been suspended was used.

[4] = in vivo; parameters: species or system white rabbits; settings: rabbit
Experimental: as §1, §2, §3
In a comparative example, about 1 wt.% of indomethacin was mixed in 100 parts by weight of an ointment base comprising 40% of ethyl alcohol, 58.4% of water, 1.5% of a polycarboxylic acid (Carbopol 940® of Goodrich Chemical Co.) and 0.1% of triethanolamine to prepare an ointment. 3 g of the ointment was placed in the constant temperature glass cell. No polymer membrane was used.

[5] = plaster of clonidine; American Heart Journal, 217-222, July (1984); cited from earlier work
[6] = rabbit, blood, topical or ocular, 32° C., read-out: Concentration of drug in blood
[7] = rabbit, blood, topical or ocular, 38° C., read-out: Concentration of drug in blood

CC(=O)Nc1ccc(O)cc1 [acetaminophen]
Amount of drug permeated through the skin ([1]; 32° C., 2 hr): 0 μg/cm^2
Amount of drug permeated through the skin ([1]; 32° C., 4 hr): 0 μg/cm^2
Amount of drug permeated through the skin ([1]; 32° C., 12 hr): 0 μg/cm^2
Amount of drug permeated through the skin ([1]; 32° C., 24 hr): 2 μg/cm^2
Amount of drug permeated through the skin ([1]; 32° C., 36 hr): 5 μg/cm^2
Amount of drug permeated through the skin ([1]; 38° C., 2 hr): 1 μg/cm^2
Amount of drug permeated through the skin ([1]; 38° C., 4 hr): 3 μg/cm^2
Amount of drug permeated through the skin ([1]; 38° C., 12 hr): 60 μg/cm^2
Amount of drug permeated through the skin ([1]; 38° C., 24 hr): 170 μg/cm^2
Amount of drug permeated through the skin ([1]; 38° C., 36 hr): 330 μg/cm^2

O=[N+]([O-])OCC(CO[N+](=O)[O-])O[N+](=O)[O-] [nitroglycerin]
Cumulative amount of permeated nitroglycerin ([2]; With polymer membrane of the present invention, 2 h): 26 μg/cm^2
Cumulative amount of permeated nitroglycerin ([2]; With polymer membrane of the present invention, 4 hr): 92 μg/cm^2
Cumulative amount of permeated nitroglycerin ([2]; With polymer membrane of the present invention, 6 hr): 185 μg/cm^2
Cumulative amount of permeated nitroglycerin ([2]; With polymer membrane of the present invention, 8 hr): 274 μg/cm^2
Cumulative amount of permeated nitroglycerin ([2]; With polymer membrane of the present invention, 10 hr): 365 μg/cm^2
Cumulative amount of permeated nitroglycerin ([2]; Without polymer membrane (skin only), 2 h): 8 μg/cm^2
Cumulative amount of permeated nitroglycerin ([2]; Without polymer membrane (skin only), 4 hr): 44 μg/cm^2
Cumulative amount of permeated nitroglycerin ([2]; Without polymer membrane (skin only), 6 hr): 101 μg/cm^2
Cumulative amount of permeated nitroglycerin ([2]; Without polymer membrane (skin only), 8 hr): 154 μg/cm^2
Cumulative amount of permeated nitroglycerin ([2]; Without polymer membrane (skin only), 10 hr): 218 μg/cm^2

CC(C(=O)O)c1cccc(C(=O)c2ccccc2)c1 (stereo not shown) [ketoprofen]
Concentration of drug in blood ([3]; 32° C., 6 hr): 0 µg/mL
concentration at 24 h [3, 6]: 0.018 µg/mL
concentration at 48 h [3, 6]: 0.017 µg/mL
concentration at 6 h ([3]; rabbit, blood, topical or ocular, 38° C., 6 hr, read-out: Concentration of drug in blood): 0.74 µg/mL
concentration at 24 h [3, 7]: 0.41 µg/mL
concentration at 48 h [3, 7]: 0.3 µg/mL

COc1ccc2c(c1)c(CC(=O)O)c(C)n2C(=O)c1ccc(Cl)cc1 [indomethacin]
Concentration of drug in blood ([4]; 360 min): 0 µg/mL
Concentration of drug in blood ([4]; 2880 min): 0 µg/mL
Concentration of drug in blood ([4]; topical or ocular, 6 h): 0.022 µg/mL
concentration at 6 h ([4]; topical or ocular, Concentration of drug in blood): 0.02 µg/mL

Clc1cccc(Cl)c1N=C1NCCN1 [clonidine]
Time to attain an effective concentration in the blood [5]: three
